Source: patent publication US20240009191A1, “METHOD AND COMPOSITION FOR THE TREATMENT OF DISEASE” (DIMERIX BIOSCIENCE PTY LTD, priority 2019, published 2024)

Assays:
Type in all cases: cell-based
[1] = molecular target: T1, AT1R-CXCR2 heteromer (Homo sapiens, UniProt P25025+P30556); assay: BRET Gi coupling, CXCR2/Rluc8, Venus/mGsi and HA-AT1R, pre-treatment with antagonists/inverse agonists; details: FIGS. 6-15; for effect of CXCL8 only on CXCR2/Rluc8-Venus/mGsi BRET: 10 nM CXCL8, 50 minutes after pre-treatment with antagonists/inverse agonists (10 μM); for effect of CXCL8 and AngII combined on CXCR2/Rluc8-Venus/mGsi BRET: 10 nM CXCL8 and 100 nM AngII; for effect of CXCL8 and AngII combined on CXCR2/Rluc8-Venus/mGsi BRET / effect of AngII only on CXCR2/Rluc8-Venus/mGsi BRET: 50 minutes after pre-treatment with antagonists/inverse agonists (10 μM); for effect of AngII only on CXCR2/Rluc8-Venus/mGsi BRET: 100 nM AngII
T1 sequence (P25025 1-360): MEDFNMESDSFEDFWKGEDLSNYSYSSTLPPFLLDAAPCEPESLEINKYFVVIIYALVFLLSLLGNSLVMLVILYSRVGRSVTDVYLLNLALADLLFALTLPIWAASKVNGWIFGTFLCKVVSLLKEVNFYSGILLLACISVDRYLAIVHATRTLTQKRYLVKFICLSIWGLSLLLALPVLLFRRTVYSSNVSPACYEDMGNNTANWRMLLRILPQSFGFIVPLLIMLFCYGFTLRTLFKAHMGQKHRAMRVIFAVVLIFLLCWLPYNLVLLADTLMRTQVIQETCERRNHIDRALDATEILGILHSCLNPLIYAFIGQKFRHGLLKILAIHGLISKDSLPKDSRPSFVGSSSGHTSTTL
T1 sequence (P30556 1-359): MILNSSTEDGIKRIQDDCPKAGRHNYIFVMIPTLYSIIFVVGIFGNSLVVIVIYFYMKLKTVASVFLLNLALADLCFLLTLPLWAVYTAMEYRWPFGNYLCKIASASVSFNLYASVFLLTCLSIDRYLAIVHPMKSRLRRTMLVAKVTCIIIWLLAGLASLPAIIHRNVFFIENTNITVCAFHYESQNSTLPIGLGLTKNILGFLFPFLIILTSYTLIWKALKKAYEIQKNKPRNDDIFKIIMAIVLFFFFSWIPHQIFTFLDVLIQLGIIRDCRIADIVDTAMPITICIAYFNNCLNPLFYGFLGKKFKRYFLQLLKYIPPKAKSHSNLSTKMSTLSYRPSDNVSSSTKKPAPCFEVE
Protocol: (§1) HEK293FT cells were seeded in 6-well plates at a density of approximately 700,000 cells/well and maintained at 37° C., 5% CO2 in Complete Media (DMEM containing 0.3 mg/ml glutamine, 100 IU/ml penicillin and 100 μg/ml streptomycin (Gibco/Thermo Fisher)) supplemented with 10% fetal calf serum (FCS; Bovogen). Transient transfections were carried out 24 h after seeding using FuGene6™ (Promega) according to manufacturer instructions. 24 h post-transfection, cells were washed with PBS, detached using 0.05% trypsin/0.53 mM EDTA, resuspended in HEPES-buffered phenol red free Complete Media containing 5% FCS and added to a poly-L-lysine-coated white 96-well microplate (Greiner Bio-One). 48 h post-transfection, bioluminescence resonance energy transfer (BRET) assays were carried out following pre-incubation of cells with EnduRen™ (Promega) at a final concentration of 30 μM, at 37° C., 5% CO2 for 2 h. BRET measurements were taken at 37° C. using the LUMlstar™ or CLARIOstar™ (BMG Labtech).
(§2) For antagonist/inverse agonist assays, cells were pre-incubated with EnduRen for 1.5 hours, followed by the addition of vehicle or antagonists/inverse agonists (10 μM) for another 30 minutes.
(§3) The BRET signal observed between interacting proteins is normalized by subtracting the background BRET ratio. […] In the following examples, the second calculation will be used and the signal is described as ligand-induced BRET′. Furthermore, for data shown in FIGS. 4 to 20, all data points in a given set are corrected relative to the final data point prior to agonist treatment, which is fixed to zero. In keys on FIGS. 7 to 20, “>” means “followed by after 50 minutes”, with agonists added at time zero on the x-axes.
(§4) Prior to agonist treatment (added at 0 minutes), a baseline BRET signal was recorded for each of the combinations for 20 minutes. Data were calculated as ligand-induced BRET relative to the ‘vehicle followed by vehicle’ (veh>veh) data set.

[2] = molecular target: T1, AT1R-CXCR2 heteromer; assay: BRET trafficking of CXCR2/Rluc8 (Venus/Kras, Rab5, Rab8) with HA-AT1R, pre-treatment with vehicle or antagonists/inverse agonists; details: 50 minutes after pre-treatment (10 μM); for effect of both CXCL8 and AngII combined on CXCR2/Rluc8-Venus/Kras BRET / effect of both CXCL8 and AngII combined on CXCR2/Rluc8-Venus/Rab5 BRET / effect of both CXCL8 and AngII combined on CXCR2/Rluc8-Venus/Rab8 BRET: 10 nM CXCL8 and 100 nM AngII; for effect of both CXCL8 and AngII combined on CXCR2/Rluc8-Venus/Kras BRET: FIG. 16C, 16E-16H; for effect of both CXCL8 and AngII combined on CXCR2/Rluc8-Venus/Rab5 BRET: FIG. 17C, 17E-17H; for effect of both CXCL8 and AngII combined on CXCR2/Rluc8-Venus/Rab8 BRET: FIG. 18C, 18E-18H; for effect of AngII on CXCR2/Rluc8-Venus/Kras BRET / effect of AngII on CXCR2/Rluc8-Venus/Rab5 BRET / effect of AngII on CXCR2/Rluc8-Venus/Rab8 BRET: 100 nM AngII only; for effect of AngII on CXCR2/Rluc8-Venus/Kras BRET: FIG. 16B, 16D; for effect of AngII on CXCR2/Rluc8-Venus/Rab5 BRET: FIG. 17B, 17D; for effect of AngII on CXCR2/Rluc8-Venus/Rab8 BRET: FIG. 18B, 18D
Protocol: as §1, §2, §3, §4

[3] = molecular target: T2, AT1R-CXCR2 heteromer (Homo sapiens, UniProt P25025+P30556); assay: BRET trafficking of AT1R/Rluc8 (Venus/Kras, Rab5) with unlabelled CXCR2, pre-treatment with vehicle or antagonists/inverse agonists; details: 50 minutes after pre-treatment (10 μM); for effect of both CXCL8 and AngII combined on AT1R/Rluc8-Venus/Kras BRET / effect of both CXCL8 and AngII combined on AT1R/Rluc8-Venus/Rab5 BRET: 10 nM CXCL8 and 100 nM AngII; for effect of both CXCL8 and AngII combined on AT1R/Rluc8-Venus/Kras BRET: FIG. 19B-19F; for effect of both CXCL8 and AngII combined on AT1R/Rluc8-Venus/Rab5 BRET: FIG. 20B-20F; for effect of AngII on AT1R/Rluc8-Venus/Kras BRET / effect of AngII on AT1R/Rluc8-Venus/Rab5 BRET: 100 nM AngII only; for effect of AngII on AT1R/Rluc8-Venus/Kras BRET: FIG. 19A; for effect of AngII on AT1R/Rluc8-Venus/Rab5 BRET: FIG. 20A
T2 sequence (P30556 1-359): T1 sequence (P30556 1-359)
T2 sequence (P25025 1-360): T1 sequence (P25025 1-360)
Protocol: as §1, §2, §3, §4

effect of CXCL8 only on CXCR2/Rluc8-Venus/mGsi BRET [1]	effect of AngII only on CXCR2/Rluc8-Venus/mGsi BRET [1]	effect of AngII on CXCR2/Rluc8-Venus/Kras BRET [2]	effect of AngII on CXCR2/Rluc8-Venus/Rab5 BRET [2]	effect of AngII on CXCR2/Rluc8-Venus/Rab8 BRET [2]	effect of AngII on AT1R/Rluc8-Venus/Kras BRET [3]	effect of AngII on AT1R/Rluc8-Venus/Rab5 BRET [3]	Compound	effect of CXCL8 and AngII combined on CXCR2/Rluc8-Venus/mGsi BRET [1]	effect of both CXCL8 and AngII combined on CXCR2/Rluc8-Venus/Kras BRET [2]	effect of both CXCL8 and AngII combined on CXCR2/Rluc8-Venus/Rab5 BRET [2]	effect of both CXCL8 and AngII combined on CXCR2/Rluc8-Venus/Rab8 BRET [2]	effect of both CXCL8 and AngII combined on AT1R/Rluc8-Venus/Kras BRET [3]	effect of both CXCL8 and AngII combined on AT1R/Rluc8-Venus/Rab5 BRET [3]
not being altered	completely inhibited	completely inhibited	completely inhibited	completely inhibited	completely inhibited	completely inhibited	CCOc1nc2cccc(C(=O)O)c2n1Cc1ccc(-c2ccccc2-c2nc(=O)o[nH]2)cc1 [azilsartan]	indistinguishable from that observed with CXCL8 only	indistinguishable from the effect observed with CXCL8 only	indistinguishable from the effect observed with CXCL8 only	completely inhibited	completely inhibited	completely inhibited
completely inhibited	not being altered	–	–	–	–	–	Cc1c(F)cccc1NC(=O)Nc1ccc(Cl)c(S(=O)(=O)[C@H]2CCCNC2)c1O [danirixin]	indistinguishable from that observed with AngII only	–	–	–	indistinguishable from the effect observed with AngII only	indistinguishable from the effect observed with AngII only
not being altered	completely inhibited	–	–	–	–	–	CCCCc1ncc(/C=C(\Cc2cccs2)C(=O)O)n1Cc1ccc(C(=O)O)cc1 [eprosartan]	indistinguishable from that observed with CXCL8 only	–	–	–	–	–
not being altered	completely inhibited	completely inhibited	completely inhibited	completely inhibited	completely inhibited	completely inhibited	CCCCC1=NC2(CCCC2)C(=O)N1Cc1ccc(-c2ccccc2-c2nnn[nH]2)cc1 [irbesartan]	indistinguishable from that observed with CXCL8 only	indistinguishable from the effect observed with CXCL8 only	indistinguishable from the effect observed with CXCL8 only	completely inhibited	completely inhibited	completely inhibited
not being altered	completely inhibited	–	–	–	–	–	CCCCc1nc(Cl)c(CO)n1Cc1ccc(-c2ccccc2-c2nn[nH]n2)cc1 [losartan]	indistinguishable from that observed with CXCL8 only	–	–	–	–	–
completely inhibited	not being altered	did not alter	did not alter	did not alter	–	–	CC[C@@H](Nc1c(Nc2cccc(C(=O)N(C)C)c2O)c(=O)c1=O)c1ccc(C)o1 [navarixin]	indistinguishable from that observed with AngII only	indistinguishable from the effect observed with AngII only	indistinguishable from the effect observed with AngII only	indistinguishable from the effect observed with AngII only	indistinguishable from the effect observed with AngII only	indistinguishable from the effect observed with AngII only
not being altered	completely inhibited	–	–	–	–	–	CCCc1nc2c(C)cc(-c3nc4ccccc4n3C)cc2n1Cc1ccc(-c2ccccc2C(=O)O)cc1 [telmisartan]	indistinguishable from that observed with CXCL8 only	–	–	–	–	–

Compound	effect of CXCL8 only on CXCR2/Rluc8-Venus/mGsi BRET [1]	effect of AngII only on CXCR2/Rluc8-Venus/mGsi BRET [1]	effect of AngII on CXCR2/Rluc8-Venus/Kras BRET [2]	effect of AngII on CXCR2/Rluc8-Venus/Rab5 BRET [2]	effect of AngII on CXCR2/Rluc8-Venus/Rab8 BRET [2]	effect of AngII on AT1R/Rluc8-Venus/Kras BRET [3]	effect of AngII on AT1R/Rluc8-Venus/Rab5 BRET [3]	effect of CXCL8 and AngII combined on CXCR2/Rluc8-Venus/mGsi BRET [1]	effect of both CXCL8 and AngII combined on CXCR2/Rluc8-Venus/Kras BRET [2]	effect of both CXCL8 and AngII combined on CXCR2/Rluc8-Venus/Rab5 BRET [2]	effect of both CXCL8 and AngII combined on CXCR2/Rluc8-Venus/Rab8 BRET [2]	effect of both CXCL8 and AngII combined on AT1R/Rluc8-Venus/Kras BRET [3]	effect of both CXCL8 and AngII combined on AT1R/Rluc8-Venus/Rab5 BRET [3]
O=C(Nc1ccc([N+](=O)[O-])cc1O)Nc1ccccc1Br [SB225002]	completely inhibited	not being altered	did not alter	did appear to inhibit	did not alter	–	–	indistinguishable from that observed with AngII only	indistinguishable from the effect observed with AngII only	appears to inhibit the effect of AngII as well as that of CXCL8	indistinguishable from the effect observed with AngII only	indistinguishable from the effect observed with AngII only	indistinguishable from the effect observed with AngII only
CCOc1nc2cccc(C(=O)O)c2n1Cc1ccc(-c2ccccc2-c2nnn[nH]2)cc1 [candesartan]	not being altered	completely inhibited	–	–	–	–	–	indistinguishable from that observed with CXCL8 only	–	–	–	–	–
